Data reported in patent publication US8507533B2, “Glucagon receptor modulators” (Pfizer Inc., priority 2011, dated 2013).

Key:
human glucagon receptor [1] = biological target: T1, human glucagon receptor (Homo sapiens (Human), UniProt P47871); test: Human Glucagon SPA Assay (binding of [125I]Glucagon-Cex); settings: membrane from chem-1 cells stably transfected with the human glucagon receptor, Ki by Cheng-Prusoff equation
Method: The Glucagon SPA assay is used to determine the ability of test compounds to block the binding of glucagon-cex to the glucagon receptor. Test compounds are re-suspended and serially diluted in 100% DMSO. 1 μl of test compound at the desired concentrations is spotted into the appropriate wells of 96 well low binding white clear bottom plate (Corning). 1 μl of DMSO is spotted into total binding wells. 1 μl of a known glucagon antagonist at a concentration of 20 μM is added to non specific binding wells. […] All assay ingredients with the exception of test compounds are re-suspended in the following buffer; 50 mM Hepes pH 7.4; 5 mM MgCl2; 1 mM CaCl; 5% glycerol and 0.2% BSA. Following a 6-10 hr incubation at room temperature the amount of hot ligand bound to the cell membranes is determined by reading the plates on a Wallac Trilux radioactive emission detector. Data is analyzed using Pfizer's Data analysis program. IC50 values are then determined from the generated sigmoidal dose response curves. Ki values are calculated using Cheng-Prusoff equation. N is the number of times the compound was assayed.

human glucagon receptor [2] = biological target: T1, human glucagon receptor; test: Glucagon cAMP Assay (Cisbio cAMP detection); assay type: cell-based; settings: CHOK1 cells stably transfected with the human glucagon receptor; block of glucagon induced cAMP production; Kb by modified Cheng-Prusoff equation
Method: The Cisbio cAMP detection assay is used to determine the ability of punitive glucagon antagonist to block glucagon induced cAMP production. Potential glucagon antagonists are re-suspended and diluted in 100% DMSO. Prior to use in the Glucagon cAMP assay 100×DMSO compound stocks are diluted 20× with DMEM-F12 media (Invitrogen) containing either 0.1% or 4% BSA. […] 2 μls of 5% DMSO or known glucagon antagonist are added to each plate to define the assay window. CHOK1 cells stably transfected with the human glucagon receptor are removed from culture flasks with cell dissociation buffer. Cell pellets are re-suspended, at a concentration of 8.3e^5 cells/ml in DMEM-F12 with or without 4% BSA and 200 uM IBMX. 6 μls of cell suspensions are added to the assay plates. Plates are incubated for 20 min at room temperature prior to the addition of a 100 μM challenge dose of glucagon. On a separate plate glucagon dose response curves are run to determine the EC50 of glucagon. After a 30 min room temperature incubation the reaction is terminated by the addition of lysis buffer containing the cAMP detection reagents. Plates are incubated for an additional 60 min at room temperature prior to being read on the Perkin Elmer fluorescent plate reader. Raw is converted to nM of cAMP produced based on a cAMP standard curve. Converted data is then analyzed using the Pfizer data analysis program. IC50 values are determined from the generated sigmoidal dose response curves. Kb values are calculated using a modified Cheng-Prusoff equation. N is the number of times the compound was assayed.

T1 sequence (P47871 26-477): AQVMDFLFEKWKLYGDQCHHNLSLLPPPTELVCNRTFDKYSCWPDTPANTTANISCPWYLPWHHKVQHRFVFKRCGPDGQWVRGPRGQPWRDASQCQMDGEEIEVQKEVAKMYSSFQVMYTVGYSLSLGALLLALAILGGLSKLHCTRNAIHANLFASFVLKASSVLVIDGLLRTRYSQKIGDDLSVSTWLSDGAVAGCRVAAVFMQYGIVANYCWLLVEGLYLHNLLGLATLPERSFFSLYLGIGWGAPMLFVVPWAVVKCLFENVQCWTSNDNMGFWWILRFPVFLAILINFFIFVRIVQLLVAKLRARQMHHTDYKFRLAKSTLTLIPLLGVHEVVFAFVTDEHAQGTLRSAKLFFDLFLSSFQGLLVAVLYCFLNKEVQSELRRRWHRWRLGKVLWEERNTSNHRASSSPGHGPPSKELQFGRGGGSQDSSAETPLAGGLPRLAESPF

Ki (human glucagon receptor [1]) | Kb (human glucagon receptor [2]) | Compound
665 nM | 835 nM | CCCC(Oc1ccc(-n2cc(Cl)c(C)n2)cc1)c1ccc(C(=O)NCCC(=O)O)cc1 (racemic) [Example 22, (+/−)-3-(4-(1-(4-(4-chloro-3-methyl-1H-pyrazol-1-yl)phenoxy)butyl)benzamido)propanoic acid]
1330 nM | 1450 nM | CCCCc1ccn(-c2ccc(OC(CCC)c3ccc(C(=O)NCCC(=O)O)cc3)cc2)n1 (racemic) [Example 31, (+/−)-3-(4-(1-(4-(3-butyl-1H-pyrazol-1-yl)phenoxy)butyl)benzamido)propanoic acid]
556 nM | 2610 nM | CCCC(Oc1ccc(-c2cc(C(F)(F)F)nn2C)cc1)c1ccc(C(=O)NCCC(=O)O)cc1 (racemic) [Example 53, (+/−)-3-(4-(1-(4-(1-methyl-3-(trifluoromethyl)-1H-pyrazol-5-yl)phenoxy)butyl)benzamido)propanoic acid]
17 nM | 79.3 nM | O=C(O)CCNC(=O)c1ccc(C(Nc2ccc(-n3cc(C(F)(F)F)cn3)nc2)C2CCCCC2)cc1 (racemic) [Example 101, (+/−)-3-(4-(cyclohexyl(6-(4-(trifluoromethyl)-1H-pyrazol-1-yl)pyridine-3-ylamino)methyl)benzamido)propanoic acid]
69.8 nM | 455 nM | Cc1cc(NC(CC(C)C)c2ccc(C(=O)NCCC(=O)O)cc2)cnc1-n1cc(C(F)(F)F)cn1 (racemic) [Example 105, (+/−)-3-(4-(3-methyl-1-(5-methyl-6-(4-(trifluoromethyl)-1H-pyrazol-1-yl)pyridin-3-ylamino)butyl)benzamido)propanoic acid]
91.9 nM | 187 nM | O=C(O)CCNC(=O)c1ccc(C(Nc2ccc(-n3cc(C(F)(F)F)cn3)nc2)C2CCC2)cc1 (racemic) [Example 106, (+/−)-3-(4-(cyclobutyl(6-(4-(trifluoromethyl)-1H-pyrazol-1-yl)pyridin-3-ylamino)methyl)benzamido)propanoic acid]
71.6 nM | 252 nM | O=C(O)CCNC(=O)c1ccc(C(CC2CC2)Nc2ccc(-n3cc(C(F)(F)F)cn3)nc2)cc1 (racemic) [Example 107, (+/−)-3-(4-(2-cyclopropyl-1-(6-(4-(trifluoromethyl)-1H-pyrazol-1-yl)pyridin-3-ylamino)ethyl)benzamido)propanoic acid]
103 nM | 67 nM | O=C(O)CCNC(=O)c1ccc(C(Oc2ccc(-n3cc4ccccc4n3)cc2)C2CCCC2)cc1 (racemic) [Example 119, (+/−)-3-(4-((4-(2H-indazol-2-yl)phenoxy)(cyclopentyl)methyl)benzamido)propanoic acid]
298 nM | 764 nM | O=C(O)CCNC(=O)c1ccc(C(Nc2ccc(-n3cnc(C(F)(F)F)c3)nc2)C(F)(F)F)cc1 (racemic) [Example 121, (+/−)-3-(4-(2,2,2-trifluoro-1-(6-(4-(trifluoromethyl)-1H-imidazol-1-yl)pyridin-3-ylamino)ethyl)benzamido)propanoic acid]
45.7 nM | 43 nM | CC(C)(C)c1cn(-c2ccc(NC(c3ccc(C(=O)NCCC(=O)O)cc3)C3CCCC3)cn2)cn1 (racemic) [Example 122, (+/−)-3-(4-((6-(4-tert-butyl-1H-imidazol-1-yl)pyridin-3-ylamino)(cyclopentyl)methyl)benzamido)propanoic acid]
446 nM | 1640 nM | CCCC(Oc1cnc(-n2cc(C(F)(F)F)cn2)c(C)c1)c1ccc(C(=O)NCCC(=O)O)cc1 (racemic) [Example 150, (+/−)-3-(4-(1-(5-methyl-6-(4-(trifluoromethyl)-1H-pyrazol-1-yl)pyridin-3-yloxy)butyl)benzamido)propanoic acid]
20.2 nM | 227 nM | Cc1cc(OC(c2ccc(C(=O)NCCC(=O)O)cc2)C2CCC2)cc(C)c1-n1cc(C(F)(F)F)cn1 (racemic) [Example 151, (+/−)-3-(4-(cyclobutyl(3,5-dimethyl-4-(4-(trifluoromethyl)-1H-pyrazol-1-yl)phenoxy)methyl)benzamido)propanoic acid]
35.2 nM | 301 nM | Cc1cc(OC(c2ccc(C(=O)NCCC(=O)O)cc2)C2CC(C)(C)C2)cc(C)c1-n1cc(C(F)(F)F)cn1 (racemic) [Example 152, (+/−)-3-(4-((3,5-dimethyl-4-(4-(trifluoromethyl)-1H-pyrazol-1-yl)phenoxy)(3,3-dimethylcyclobutyl)methyl)benzamido)propanoic acid]
32.3 nM | 225 nM | CCCC(Oc1cc(C)c(-n2cc(C(F)(F)F)cn2)c(OC)c1)c1ccc(C(=O)NCCC(=O)O)cc1 (racemic) [Example 153, (+/−)-3-(4-(1-(3-methoxy-5-methyl-4-(4-(trifluoromethyl)-1H-pyrazol-1-yl)phenoxy)butyl)benzamido)propanoic acid]
235 nM | 629 nM | O=C(O)CCNC(=O)c1ccc(C(Nc2ccc(-n3cnc(C(F)(F)F)c3)nc2)C2CC(F)(F)C2)cc1 (racemic) [Example 154, (+/−)-3-(4-((3,3-difluorocyclobutyl)(6-(4-(trifluoromethyl)-1H-imidazol-1-yl)pyridin-3-ylamino)methyl)benzamido)propanoic acid]
47.3 nM | 55.8 nM | CCCC(Nc1ccc(-n2cnc(-c3ccccc3)c2)nc1)c1ccc(C(=O)NCCC(=O)O)cc1 (racemic) [Example 162, (+/−)-3-(4-(1-(6-(4-phenyl-1H-imidazol-1-yl)pyridin-3-ylamino)butyl)benzamido)propanoic acid]
65.9 nM | 42.7 nM | Cc1nn(-c2ccc(NC(c3ccc(C(=O)NCCC(=O)O)cc3)C3CCCC3)cn2)cc1Cl (racemic) [Example 163, (+/−)-3-(4-((6-(4-chloro-3-methyl-1H-pyrazol-1-yl)pyridin-3-ylamino)(cyclopentyl)methyl)benzamido)propanoic acid]
192 nM | 52.4 nM | CCCC(Nc1ccc(-n2cc(-c3ccccn3)cn2)nc1)c1ccc(C(=O)NCCC(=O)O)cc1 (racemic) [Example 164]
142 nM | 305 nM | CCCC(Nc1ccc(-n2cc(-c3ccccc3)cn2)nc1)c1ccc(C(=O)N(C)CCC(=O)O)cc1 (racemic) [Example 165, (+/−)-3-(N-methyl-4-(1-(6-(4-phenyl-1H-pyrazol-1-yl)pyridin-3-ylamino)butyl)benzamido)propanoic acid]
101 nM | 79.1 nM | CCCC(Nc1ccc(-n2cc(C3CC3)cn2)nc1)c1ccc(C(=O)NCCC(=O)O)cc1 (racemic) [Example 176, (+/−)-N-[4-(1-{[6-(4-cyclopropyl-1H-pyrazol-1-yl)pyridin-3-yl]amino}butyl)benzoyl]-beta-alanine]
432 nM | 2340 nM | O=C(O)CCNC(=O)c1ccc(C(Nc2ccc(-n3cc(C(F)(F)F)cn3)nc2)C2CCOCC2)cc1 (racemic) [Example 177, (±)-3-(4-((tetrahydro-2H-pyran-4-yl)((6-(4-(trifluoromethyl)-1H-pyrazol-1-yl)pyridin-3-yl)amino)methyl)benzamido)propanoic acid]
37.4 nM | 215 nM | CC(C)(C)C(Nc1ccc(-n2cc(C(F)(F)F)cn2)nc1)c1ccc(C(=O)NCCC(=O)O)cc1 (racemic) [Example 178, (±)-3-(4-(2,2-dimethyl-1-((6-(4-(trifluoromethyl)-1H-pyrazol-1-yl)pyridin-3-yl)amino)propyl)benzamido)propanoic acid]
87.2 nM | 195 nM | CC(C)(C)C(Nc1ccc(-n2cnc(C(F)(F)F)c2)nc1)c1ccc(C(=O)NCCC(=O)O)cc1 (racemic) [Example 181, (±)-3-(4-(2,2-dimethyl-1-((6-(4-(trifluoromethyl)-1H-imidazol-1-yl)pyridin-3-yl)amino)propyl)benzamido)propanoic acid]
240 nM | 321 nM | CCCC(Oc1cc(F)c(-n2cc(C(F)(F)F)cn2)c(F)c1)c1ccc(C(=O)NCCC(=O)O)cc1 (racemic) [Example 184, (+/−)-3-(4-{1-[3,5-difluoro-4-(4-trifluoromethyl-pyrazol-1-yl)-phenoxy]-butyl}-benzoylamino)-propionic acid]
137 nM | 175 nM | CCCC(Oc1ccc(-n2cc3cc(F)ccc3n2)cc1)c1ccc(C(=O)NCCC(=O)O)cc1 (racemic) [Example 185, (+/−)-3-(4-{1-[4-(5-fluoro-indazol-2-yl)-phenoxy]-butyl}-benzoylamino)-propionic acid]
